Assay results from patent US20130116224A1, “Method and Composition for Treatment of Tumors” (priority 2010, published 2013).

Assays:
[1] = tested on: LNCaP; experiment: In vitro anti-cancer efficacy study of CTC-96, ATCC recommended growth condition (protocol GP687), cell viability and proliferation assay (RFU); type: cell-based, human
Method: (§1) B. In Vitro Anti-Cancer Efficacy Study of CTC-96 in Cell Lines Maintained in ATCC Recommended Growth Condition Using Approved Protocol GP687
(§2) For example in FIG. 2C, on day 2 with 20 μg/mL CTC-96. […] This difference among the cell lines was quite consistent at all initial seeding densities except for the highest (100%). At the three lower density seedings, the decrease in relative fluorescence units (RFU) was in a near linear relationship with increase of CTC-96 dose for LNCaP and RWPE cells. Both cell types began to show a response to CTC-96 at 5 μg/mL. (see FIGS. 2 C and D).
(§3) When cell proliferation data were obtained for all time points, the RFU reading on day 3 was considerably lower than the projected trend line as shown in FIG. 1. The possible cause was the variation in the incubation time as described in GP687 9.5.2.3. […] Due to time constraints, the incubation time carried out was shorter on day three than for the […]. The longer the incubation time, the greater the RFLI measured. Therefore, day 3 incubation data were not included in the analysis, see FIG. 2. […] Different cell density seedings allowed this study to maximally evaluate the anticancer efficacy of CTC-96. In vitro anticancer effectiveness can be categorized into: killing and inhibiting effects. High density seeding provides maximal numbers of cells to reveal the killing effect, which leads to extensive cell death with quick onset. Also high cell density sometimes provides some protection against cytotoxic effects. Low density seeding reduces the effects of contact inhibition in non-malignant cell lines and allows longer incubation with the drug. The longer treatment time allows observation of maximum inhibitory drug effects. In addition, low density cell seeding allows untreated cells to undergo several cell divisions.
(§4) In this study, four seeding densities of 100%, 50%, 25% and 12.5% were planned for each cell line.

[2] = tested on: Malme-3M; experiment: as above; type: cell-based, human; conditions: day 2, 20 μg/mL CTC-96, FIG. 2C, ATCC recommended medium
Method: as §1, §2, §3, §4

[3] = tested on: IMR; experiment: as above; type: cell-based; conditions: day 2, 20 μg/mL CTC-96, FIG. 2C, ATCC recommended medium
Method: as §1, §2, §3, §4

[4] = tested on: RWPE; experiment: as above; type: cell-based
Method: as §1, §2, §3, §4

[5] = tested on: LNCaP; experiment: CTC-96 7-day treatment in RPMI1640/2% FBS (GP689 modified) and confirmation study, cell viability and proliferation assay; type: cell-based, human
Method: (§5) The study was performed as described in GP689 with modifications as follows:
(§6) The cell growth and test media was RPM11640/2% FBS. All cell lines were acclimated in this low-serum condition for about two weeks prior to treatment with CTC-96. CTC-96 treatment was extended to 7 days from the 3 days previously used. Cell viability and proliferation was measured and medium was changed on day 0, 2, 4 and 7. Fresh CTC-96 added during every medium change. Incubation for cell viability and proliferation assay was performed for 2 hours.
(§7) A new batch of all four test cell lines were acclimated in RPMII 640/2% FBS about 10 days prior to CTC-96 treatment. CTC-96 treatment started after […] of adaptation. A 96-well plate was used at the at the start of proliferation in an attempt to eliminate the peeling of LNCaP monolayers. A manual multichannel pipette was utilized to change medium on day 0. Peeling still occurred in one plate. That plate was arbitrarily assigned the last time point day 7 in order to have good plates of LNCaP for the first three time points in a row.
(§8) For medium changes on days 2, 4 and 7, only half of the media was replaced to completely eliminate the peeling in LNCaP. This method was utilized for the other three cell lines in order to keep the entire test system consistent for all the cell lines. The replacement media contained 1×CTC-96 concentrations and therefore only half of CTC-96 was freshly replaced. Incubation for cell viability and proliferation assay was performed for strictly 2 hours. Allover proliferation was good for all cell lines (see FIG. 6). Untreated ENCaP cells became 100% confluent in all seeding conditions on day 7. […] 4.2.5.2.1.3. The day 4 RFU reading was chosen in the proliferation percentage analysis because the peeling off in LNCaP Day 7 plate led to decrease on RFU so much that the trendline of untreated cells turned downwards instead of plateauing in high density seeding, (see FIG. 6 Al 3). Decay of CTC-96 may occur over 7 days period and inhibition might be lowered towards the end of treatment. The upward turn of the trendline for malignant cell lines in 5 μg/mL may indicate this decay, (see FIG. 6 A2-3, CI-4). Malignant cell lines were more sensitive to CTC-96 than their sister normal cell lines.

[6] = tested on: Malme-3M; experiment: as above; type: cell-based, human
Method: as §5, §6, §7, §8

[7] = tested on: IMR 90; experiment: as above; type: cell-based
Method: as §5, §6, §7, §8

[8] = tested on: RWPE-1; experiment: as above; type: cell-based
Method: as §5, §6, §7, §8

[9] = 20 μg/mL CTC-96, day 2 vs day 0
[10] = FIGS. 2C and D, lower density seedings
[11] = day 2, 20 μg/mL CTC-96, FIG. 2C, ATCC recommended medium

`CC(/C=C(/C)[O-])=NCCN=C(C)/C=C(/C)[O-].Cc1ncc[nH]1.Cc1ncc[nH]1.[Br-].[Co+3]` [CTC-96] was tested, and the “killing effect (net cell loss)” value [1, 9] was “lower number of cell on day 2 than on day 0”, the “concentration at which cells began to show a response” value [1, 10] was 5 µg/mL and the “total cells in comparison to untreated controls” value (“total cells in comparison” for short) [1, 11] was 12%. For the same molecule, the “total cells in comparison” value [2] was 70%, the “total cells in comparison” value [3] was 72% and the “killing effect (net cell loss)” value [4, 9] was “lower number of cell on day 2 than on day 0”. The “concentration at which cells began to show a response” value [4, 10] was 5 µg/mL, the “total cells in comparison” value [4, 11] was 10% and the “cell number relative to originally seeded” value ([5]; 5 μg/mL CTC-96, RPMI1640/2% FBS, 7-day treatment, FIG. 4A) was “almost no change, or even had fewer cells than originally seeded”. The “inhibition (proliferation percentage, day 4 RFU)” value ([5]; 5 μg/mL, confirmation study, FIG. 7) was “greater inhibition”, the proliferation ([5]; 25% cell density, 5 t μm/mL) was “proliferation completely ceases” and the proliferation diminished ([5]; 50% cell density, 5 μm/mL CTC-96, RPMI 1640/2% FBS) was 30-40%. For the same molecule, the “decrease in cell number compared to un-treated controls” value ([5]; initial seeding densities of 50% and 25%, 5 μm/mL CTC-96) was 30-50%, the proliferation ([6]; Malme 3M, 1 μg/mL) was “ceases proliferating” and the “cell elimination / proliferation” value ([6]; Malme 3M, 5 μg/mL drug concentration) was “not killed, but stopped proliferating”. For the same molecule, the “cell number relative to originally seeded” value ([6]; Malme-3M, 5 μg/mL CTC-96, RPMI1640/2% FBS, 7-day treatment, FIG. 4C) was “almost no change, or even had fewer cells than originally seeded”, the “inhibition (proliferation percentage, day 4 RFU)” value ([6]; Malme-3M, 5 μg/mL, confirmation study, FIG. 7) was “greater inhibition” and the proliferation ([7]; IMR 90, 5 μg/mL) was “continues proliferating”. The proliferation ([7]; IMR, 10 μg/mL CTC-96, RPMI1640/2% FBS, 7-day treatment) was “inhibited the proliferation”, the “inhibition (proliferation percentage, day 4 RFU)” value ([7]; IMR, 10 μg/mL, confirmation study, FIG. 7) was “lower degree of inhibition” and the proliferation ([8]; RWPE, 10 μg/mL CTC-96, RPMI1640/2% FBS, 7-day treatment) was “inhibited the proliferation”. For the same molecule, the “inhibition (proliferation percentage, day 4 RFU)” value ([8]; RWPE, 10 μg/mL, confirmation study, FIG. 7) was “lower degree of inhibition”, the proliferation ([8]; RWPE-1, 25% cell density, 5 t μm/mL) was “still proceeds proliferating, albeit, at a reduced rate” and the proliferation ([8]; RWPE-1, 50% cell density, same drug concentration (5 μm/mL)) was “minimally affected”. The “cell elimination (cell loss)” value ([8]; RWPF-1 (non-malignant counterpart), seeding densities 50% and 25%, concentration that killed the malignant cell line) was “no cell loss”.
